Entries after “also recorded” stand apart in the source; their conditions may differ.
Key:
[1] = tested on: mouse models with temporary and permanent middle cerebral artery (MCA) occlusion; assay: Ischemic volume (TTC) in stroke models with middle cerebral artery occlusion; type: in vivo; details: intraperitoneal
From the text: In order to investigate the changes in ischemic volume and modified limb placing test (MLPT) score by treatment with SL (3′-SL & 6′-SL) compositions in stroke models, 4-week-old mice were purchased from Central Lab Animal (Korea). Water was freely accessible, and a commercially available pellet feed (Dooyeul Biotech, Korea) was given for one week. Stroke models involving temporary and permanent middle cerebral artery (MCA) occlusion and intracerebral hemorrhage (ICH) were fabricated using 6-week-old male Sprague-Dawley rats (weight, average 185.3±15.8 g) and male BALB/c mice weight, average 24.6±3.8 g). For the comparison of SL administration effects, the mice, one hour after stroke induction, were randomly grouped into three different intraperitoneal administration groups (8 animals per group, 24 animals in total) below, and then intraperitoneally administered: • Control group: Lysis buffer control group medium intraperitoneal administration group (8 animals) • 3′-SL treatment: 3′-SL lysis buffer medium intraperitoneal administration group (8 animals) • 6′-SL treatment: 6′-SL lysis buffer medium intraperitoneal administration group (8 animals)
Local cerebral infarction mouse models were used as additional cerebral infarction models, and in these models, SL (3′-SL & 6′-SL) was intraperitoneally administered 3 hours after cerebral infarction introduction: • Control group: Lysis buffer control group medium intraperitoneal administration group (8 animals) • 3′-SL treatment: 3′-SL lysis buffer medium intraperitoneal administration group (8 animals) • 6′-SL treatment: 6′-SL lysis buffer medium intraperitoneal administration group (8 animals)
The ischemic volume measurement was conducted by measuring the volume of the ischemic area (infarct and boundary region thereof) using […] (TTC), 24 hours after ischemic induction, as follows. After brain extraction, the frontal tip was cut into 1 mm thickness, and immersed in 2% TCC solution. The stained slices were then fixed with PBS-4% paraformaldehyde, and the ischemic site and hemispherical region of each slice were measured using an image analysis system. The values due to brain edema were corrected as follows: corrected ischemic volume value: measured ischemic area×1−{[(ipsilateral hemisphere area-contralateral hemisphere area)/contralateral hemisphere]}. The ischemic volume was expressed as a percentage of the total hemispherical volume.

PGC-1α and related genes = assay: Gene expression in nerve cell test (Neuro-2a); type: cell-based, mouse; details: Neuro-2a cells, 0.1 mg/ml, 24 hours
Protocol: Neuroblasts (Neuro-2a, American Type Culture Collection, USA) were cultured in DMEM supplemented with 10% fetal bovine serum, […], and 0.1 mg/mL streptomycin in each well of 6-well plates at 37° C. in 5% CO2/95% atmospheric conditions. Neuro-2a cells correspond to the fast-growing mouse neuroblastoma cell line. After Neuro-2a cells were seeded at a density of 6000 cells per well, SL was added at a concentration of 0.1 mg/ml into the wells showing a confluency of about 5×10^6 cells/ml, followed by incubation for 24 hours under the same conditions. SL (3′-SL or 6′-SL) materials were the same as those described in Example 1. Unless otherwise stated, SL (3′-SL or 6′-SL) and the use concentrations thereof are understood to be the same as those described in Example 1. The negative control group was treated with physiological saline with 1/1000 of the volume of the medium. The cells treated with each sample were incubated at 37° C. for 24 hours, and then washed twice with cool saline solution, and RNA was extracted using TRIzol agent (Invitrogen). The expression patterns of PGC-1α and related genes were measured by using pre-designed primers and probes (Applied Biosystems; PGC-1α, Mm00447181_m1, GAPDH, and Mm99999915_q1) for the synthesized cDNA and analysis targets (Fndc5, PGC-1α, Erra, UCP1, BDNF, SOD2, and GPX1). […]

[2] = tested on: Alzheimer's disease model mice (3×Tg); assay: Cognitive ability test (Morris water maze) in Alzheimer's disease models; type: in vivo, mouse; details: 3×Tg mice, oral 0.1 mg/kg/day; test for 7 days
From the text: In order to investigate the changes in gene expression and cognitive ability by the treatment with SL (3′-SL & 6′-SL) compositions in Alzheimer's brain disease models, 6-week-old mice were purchased from Central Lab Animal (Korea). Water was freely accessible, and a commercially available pellet feed (Dooyeul Biotech, Korea) was given for two weeks. At 8 weeks of age, the mice were divided into three groups (composed of eight mice for each group): Eight 8-week-old male c57/BL6 mice (normal mice; initial body weight, average 35.6±3.3 g) treated with a normal diet were used for a control group. […]

[3] = tested on: mouse aortic smooth muscle cells (MASMs); assay: Intracellular H2O2 (ROS values, H2DCFDA) in MASMs of aging stimulation model mice; type: cell-based; details: MASMs from aging stimulation model mice; SL added to culture liquid
Protocol: In addition, for cell-level tests, mouse aortic smooth muscle cells (MASMs) were isolated from the control group fed with a high-fat diet (Rodent Diet with 60 kcal % fat) without SL administration (Griendling et al., 1991), and the SL (3′-SL & 6′-SL) compositions were added to the culture liquid, followed by incubation. For intracellular H2O2 measurement (ROS values), the cells were cultured in 12-well culture plates immersed in 0.1% bovin calf serum. The intracellular ROS values were measured using H2DCFDA. For assay, the cells were cultured together with H2DCFDA in HBSS buffer for 30 minutes. The cells were trypsinized, washed, and lysed in HBSS. The fluorescence values were measured immediately by a CytoFluor plate reader (FIG. 17a).
In FIGS. 17a and 17b, MASMs were extracted from the aging stimulation model mouse control group, and the SL (3′-SL & 6′-SL) compositions were added to the culture liquid to conduct comparison.
FIGS. 17a and 17b show the measurement results of intercellular H2O2 (ROS values) (FIG. 17a) and the measurement results of mitochondrial superoxide production (FIG. 17b).

CC(=O)N[C@H]1[C@H]([C@H](O)[C@H](O)CO)O[C@@](OC[C@H]2O[C@@H](O[C@H]3[C@H](O)[C@@H](O)[C@H](O)O[C@@H]3CO)[C@H](O)[C@@H](O)[C@H]2O)(C(=O)O)C[C@@H]1O [6′-SL, α-NeuNAc-(2→6)-β-D-Gal-(1→4)-D-Glc]
reduction of ischemic volume ([1]; all models, 24 hours after ischemic induction): about 50%
reduction of ischemic volume ([1]; local cerebellar permanent ischemia models): 50%
reduction of ischemic volume ([1]; local cerebellar temporal ischemia models): 60%
reduction of ischemic volume ([1]; local cerebral permanent occlusion models): 40%
expression levels of analysis targets (Fndc5, PGC-1α, Erra, UCP1, BDNF, SOD2, GPX1) vs negative control (PGC-1α and related genes): significant increases
escape time in the cognitive ability test (Morris water maze) [2]: definitely fast
intracellular H2O2 (ROS values) [3]: dropped the ROS values

CC(=O)N[C@H]1[C@H]([C@H](O)[C@H](O)CO)O[C@@](O[C@H]2[C@@H](O)[C@@H](CO)O[C@@H](O[C@H]3[C@H](O)[C@@H](O)C(O)O[C@@H]3CO)[C@@H]2O)(C(=O)O)C[C@@H]1O (stereo partly drawn) [3′-SL, α-NeuNAc-(2→3)-β-D-Gal-(1→4)-D-Glc]
ischemic neuronal damage protective effects ([1]; MCA occlusion models): relatively low compared with 6′-SL
expression levels of analysis targets (Fndc5, PGC-1α, Erra, UCP1, BDNF, SOD2, GPX1) vs negative control (PGC-1α and related genes): significant increases; also recorded: lower than that of 6′-SL
escape time in the cognitive ability test (Morris water maze) [2]: relatively low compared with 6′-SL
intracellular H2O2 (ROS values) [3]: dropped the ROS values

Source: patent US20190030053A1, “COMPOSITION FOR INCREASING EXPRESSION OF PGC-1alpha” (BENEBIOSIS CO., LTD., priority 2016, published 2019)
